What was measured:
[1] = target: human α2β3γ2 receptor (α2-GABAA receptor) (Homo sapiens (Human), UniProt P18507+P47869); assay: Radioligand (3H-flunitrazepam) competition binding assay, BZD site; α2 vs α5 binding selectivity; conditions: ratio of Ki at α2β3γ2 to Ki at α5β3γ2
From the text: α, β and γ subunits are essential for the formation of a complete functional GABAA receptor. In this example, HEK293 cell strains stably expressing human α5-GABAA receptor (comprising α5β3γ2 subunit) and α2-GABAA receptor (comprising α2β3γ2 subunit) were constructed and screened, respectively, by liposome transfection method (Felgner, P. L., et al., Proceedings of the National Academy of Sciences, 1987, 84:7413-7417). The specific subunit protein sequences are as follows: α5 subunit (protein sequence can be found in GenBank accession number: NM_000810.3); α2 subunit (protein sequence can be found in GenBank accession number: NM_000807.4); β3 subunit (protein sequence can be found in GenBank accession number: NM_000814.5); γ2 subunit (protein sequence can be found in GenBank accession number: NM_000816.3).
The above cell lines were subcultured. Amplification of α5β3γ2-HEK293 and α2β3γ2-HEK293 cells was used to test the affinity of the compounds to benzodiazepine site (BZD) of the GABAA receptor. During the passage of α5β3γ2-HEK293 cells, some of the suspended cells were spread on a glass slide pretreated with Poly-D-Lysine for electrophysiological testing.
Flunitrazepam is a non-specific reagent that binds to the BZD site efficiently. The affinity of the compounds to the BZD sites of the human α5β3γ2 and α2β3γ2 receptors can be determined by competing the compound with ^3H-flunitrazepam (isotope ^3H-labeled flunitrazepam) for binding to these two receptors.
Membrane preparation: HEK293 cells stably expressing human α5β3γ2 receptor or α2β3γ2 receptor were collected, suspended in 50 mM Tris-HCl buffer (pH=7.4), homogenized on ice by a homogenizer for 20 seconds 10 times, and centrifuged at 4° C., 1000 g for 10 min. The supernatant was collected, and the above steps were repeated. The supernatant was centrifuged (33800 g; centrifuge purchased from Thermo, rotor model: A27-8×50) at 4° C. for 60 min, and the precipitate was resuspended in Tris buffer (50 mM Tris-HCl, 10 mM MgCl2, 0.5 mM EDTA, 10% glycerol). The precipitate was the cell membrane. Protein content was determined by BCA (Bicinchoninic Acid) method (BCA kit from Pierce (Annoron)). The cell membrane was prepared into 1 ml aliquot and stored at −80° C.
Radioligand competition binding assay: the assay was carried out in a 200 μL system (96-well plate from Agilent) with 100 μL of cell membrane. The concentration of ^3H-flunitazepam (from PerkinElmer, lot: NET567250 UC) was 1 nM and the concentration of test compound was in the range 1×10^−5-10^−6 M. Flumazenil (from Tocris; lot: 1318) was used as a control. 1 μL of 2 mM flumazenil (final concentration 10 μM) was added to the Low signal control well (Low control, LC) and 1 μL of DMSO (from Sigma aldrich, lot: 472301) was added to the High signal control well (High control, HC). The final target membrane protein concentration was 5 μg/well. All test compound sample stocks were 10 mM DMSO solutions. The working concentration of the samples is to dilute all samples with DMSO to 0.2 mM, and then perform 4-fold continuous gradient dilution for a total of 8 concentration gradients. The 96-well plate was sealed with a plate sealing membrane and then incubated on a shaker at room temperature for 1 hour. Meanwhile, GF/C filter plate was soaked with a plate soaking buffer (0.3% PEI, polyethyleneimine, purchased from Sigma aldrich, model: P314, stored at 4° C.) for at least 0.5 hours. After completion of binding incubation, the cells were collected with a cell collector onto the GF/C filter plate and washed four times with a plate washing buffer (50 mM Tris-HCl, pH 7.4, stored at 4° C.). […]

[2] = Stability in simulated gastric fluid (SGF); format: physicochemical; conditions: 37° C., 1000 rpm
Protocol: Simulated gastric fluid (SGF), Manufacturer: Dongguan Chuangfeng Automation Technology Co., Ltd.; Product model: CF-006.
Oscillating constant temperature metal bath, Model: Thermo; Manufacturer: Digital Skaking Drybath.
Temperature: 37° C.; rotating speed: 1000 rpm; sampling time: 0, 4 hours.
Chromatographic column: Welch Xtimate C18 3.0×100 mm, 5 μm. Mobile phase: A: 0.04% trifluoroacetic acid (TFA)/H2O (v/v), B: acetonitrile (ACN). Gradient elution was performed according to the following table, flow rate: 1.0 mL/min; injection volume: 5 μL; column temperature: 35° C.; wavelength: 254 nm.
• (a) preparation of 0.04% TFA/H2O: 400 μL of TFA was measured, placed into 1 L of H2O, and homogenously mixed; • (b) Sample stock solution: about 3 mg of test sample was weighed, and prepared into a stock solution of 10 mmol/L using DMSO; • (c) 50 μL of the sample stock solution was taken, placed into a 5 mL volumetric flask, made up to the scale with the addition of SGF, and homogenously mixed. 400 μL of the solution was taken, four samples in parallel, and shaken at 1000 rpm and 37° C.; • (d) every two samples were taken after 0 and 4 hours respectively, 400 μL of acetonitrile was added, and homogenously mixed, followed by liquid phase injection, and calculation of the change % of the main peak area in the solution after 4 hours relative to 0 hour, two average value reports being taken at each time point.

[3] = target: human α5β3γ2 receptor (α5-GABAA receptor) (Homo sapiens (Human), UniProt P18507+P31644); assay: Radioligand (3H-flunitrazepam) competition binding assay, BZD site; conditions: 3H-flunitrazepam 1 nM; HEK293 membranes expressing human α5β3γ2
In short: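 Membranes from HEK293 cells stably expressing human α2β3γ2 or α5β3γ2 (5 μg protein/well) incubated 1 h at room temperature with 1 nM ^3H-flunitrazepam and 8-point 4-fold compound dilutions; nonspecific binding defined with 10 μM flumazenil. Filter-bound radioactivity counted; Ki derived from fitted IC50.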

With `Cc1onc(-c2ccc(F)cc2)c1COc1ccc(-c2nnc3n2CCOC3)cn1` [Compound 17, 3-(6-((3-(4-fluorophenyl)-5-methylisoxazol-4-yl)methoxy)pyridin-3-yl)-5,6-dihydro-8H-[1,2,4]triazolo[3,4-c][1,4]oxazine] the “Selectivity α2 ki/α5 ki” value [1] was 23.1 folds, the “Residual content in simulated gastric juice after 4 hours (compared with 0 hour content)” value [2] was 65% (4 hours) and the Ki [3] was 2.59 nM.

With `Cc1onc(-c2ccc(F)cc2)c1COc1ccc(-c2nnc3n2CCOC3)nn1` [Compound 18, 3-(6-((3-(4-fluorophenyl)-5-methylisoxazol-4-yl)methoxy)pyridazin-3-yl)-5,6-dihydro-8H-[1,2,4]triazolo[3,4-c][1,4]oxazine] the “Selectivity α2 ki/α5 ki” value [1] was 41.4 folds, the “Residual content in simulated gastric juice after 4 hours (compared with 0 hour content)” value [2] was 51% (4 hours) and the Ki [3] was 0.32 nM.

In the case of `Cc1onc(-c2ccc(F)cc2)c1COc1ccc(N2CCn3ccnc3C2=O)nn1` [Compound 37, 7-(6-((3-(4-fluorophenyl)-5-methylisoxazol-4-yl)methoxy)pyridazin-3-yl)-6,7-dihydroimidazo[1,2-a]pyrazin-8(5H)-one], the “Selectivity α2 ki/α5 ki” value [1] is reported as 48.6 folds and the Ki [3] is reported as 5.37 nM.

In the case of `Cc1onc(-c2ccc(F)cc2)c1COc1cnc(-c2nnc3n2CCOC3)cn1` [Compound 19, 3-(5-((3-(4-fluorophenyl)-5-methylisoxazol-4-yl)methoxy)pyrazin-2-yl)-5,6-dihydro-8H-[1,2,4]triazolo[3,4-c][1,4]oxazine], the “Selectivity α2 ki/α5 ki” value [1] is reported as 93.8 folds, the “Residual content in simulated gastric juice after 4 hours (compared with 0 hour content)” value [2] is reported as 94% (4 hours) and the Ki [3] is reported as 1.62 nM.

In the case of `Cc1onc(-c2ccc(F)cc2)c1COc1cnc(-c2nnc3n2CCCOC3)cn1` [Compound 24, 3-(5-((3-(4-fluorophenyl)-5-methylisoxazol-4-yl)methoxy)pyrazin-2-yl)-6,7-dihydro-5H,9H-[1,2,4]triazolo[3,4-c][1,4]oxazepane], the “Selectivity α2 ki/α5 ki” value [1] is reported as 39.2 folds and the Ki [3] is reported as 6.75 nM.

In the case of `Cc1onc(-c2ccc(F)cc2)c1COc1cnc(-c2nnc3n2CCOCC3)cn1` [Compound 33, 3-(5-((3-(4-fluorophenyl)-5-methylisoxazol-4-yl)methoxy)pyrazin-2-yl)-5,6,8,9-tetrahydro-[1,2,4]triazolo[4,3-d][1,4]oxazepane], the “Selectivity α2 ki/α5 ki” value [1] is reported as 86.7 folds, the “Residual content in simulated gastric juice after 4 hours (compared with 0 hour content)” value [2] is reported as 91% (4 hours) and the Ki [3] is reported as 9.74 nM.

For `Cc1onc(-c2ccc(F)cc2)c1COc1ccc(-c2cc3n(c(=O)n2)CCN3C)cn1` [Compound 41, 7-(6-((3-(4-fluorophenyl)-5-methylisoxazol-4-yl)methoxy)pyridin-3-yl)-1-methyl-2,3-dihydroimidazo[1,2-c]pyrimidin-5(1H)-one], the “Selectivity α2 ki/α5 ki” value [1] was 75.8 folds, the “Residual content in simulated gastric juice after 4 hours (compared with 0 hour content)” value [2] was 35% (4 hours) and the Ki [3] was 0.99 nM.

For `Cc1onc(-c2ccc(F)cc2)c1COc1ccc(-c2cc3n(c(=O)n2)C[C@]24CO[C@H](CN32)C4)cn1` [Compound 38], the “Selectivity α2 ki/α5 ki” value [1] was 122.2 folds, the “Residual content in simulated gastric juice after 4 hours (compared with 0 hour content)” value [2] was 75% (4 hours) and the Ki [3] was 2.24 nM.

With `Cc1onc(-c2ccc(F)cc2)c1COc1ccc(-c2nnc3n2CCS(=O)(=O)C3)cn1` [Compound 7, 3-(6-((3-(4-fluorophenyl)-5-methylisoxazol-4-yl)methoxy)pyridin-3-yl)-5,6-dihydro-8H-[1,2,4]triazolo[3,4-c][1,4]thiazine 7,7-dioxide] the “Selectivity α2 ki/α5 ki” value [1] was 11.01 folds and the Ki [3] was 2.14 nM.

In the case of `Cc1onc(-c2ccc(F)cc2)c1COc1ccc(N2CCN3CCNC(=O)C3C2)nn1` (centres unmarked) [Compound 10, 8-(6-((3-(4-fluorophenyl)-5-methylisoxazol-4-yl)methoxy)pyridazin-3-yl) hexahydro-2H-pyrazino[1,2-a]pyrazin-1 (6H)-one], the “Selectivity α2 ki/α5 ki” value [1] is reported as 63.3 folds and the Ki [3] is reported as 3.2 nM.

For `Cc1onc(-c2ccc(F)cc2)c1COc1cnc(-c2nnc3n2CCC3)cn1` [Compound 23, 4-(((5-(6,7-dihydro-5H-pyrrolo[2,1-c][1,2,4]triazol-3-yl)pyrazin-2-yl)oxy)methyl)-3-(4-fluorophenyl)-5-methylisoxazole], the “Selectivity α2 ki/α5 ki” value [1] was 90.2 folds, the “Residual content in simulated gastric juice after 4 hours (compared with 0 hour content)” value [2] was 80% (4 hours) and the Ki [3] was 3.06 nM.

Reference: US20250215016A1, “ISOXAZOLE-HETEROCYCLIC DERIVATIVE, PHARMACEUTICAL COMPOSITION AND USE” (SHANGHAI SIMR BIOTECHNOLOGY CO., LTD, priority 2022, published 2025)
